The values that follow come from patent publication US20070128217A1 (priority 2003, published 2007).

Assay [1] relates to rabbit serum obtained by immunizing a rabbit with the SARS-CoV strain Frankfurt 1. The class given is binding. Also on record: Binding of a rabbit serum to linear peptides / Binding of a rabbit serum to looped peptides / Rabbit serum linear peptides / Rabbit serum looped peptides / Binding of a rabbit serum to linear peptides of protein N of SARS-CoV Urbani (Rabbit serum linear peptides) / Binding of a rabbit serum to looped/cyclic peptides of protein N of SARS-CoV Urbani (Rabbit serum looped peptides): unit not given here.

Assay [2] concerns control sera (pooled serum of ten healthy LUMC hospital workers; commercial negative donor pooled serum from the Dutch bloodbank). The class given is binding, human. Set-up: Binding of Control serum LUMC to linear peptides / Binding of Control serum Blood-bank to linear peptides / Binding of Control serum LUMC to looped peptides / Binding of Control Serum Blood-Bank to Looped peptides / Binding of Control serum LUMC to linear peptides of the protein M of SARS-CoV Urbani / Binding of Control serum Blood-bank to linear peptides of the protein M of SARS-CoV Urbani / Binding of Control serum LUMC to looped peptides of the protein M of SARS-CoV Urbani / Binding of Control Serum Blood-Bank to Looped peptides of the protein M of SARS-CoV Urbani: unit not given here.

Assay [3] relates to antibodies in sera from SARS patients (sera 1a, 1b, 2, 6, 37, 62, London, SARS-yellow, SARS-green). The class given is binding, human. Also on record: Binding of serum 6 to linear peptides of protein X1 of SARS-CoV Urbani / Binding of serum 37 to linear peptides of protein X1 of SARS-CoV Urbani / Binding of serum 6 to looped/cyclic peptide (PEPSCAN-ELISA) / Binding of serum 37 to looped/cyclic peptide (PEPSCAN-ELISA) / Binding of serum 37 to looped/cyclic peptides of protein X1 of SARS-CoV Urbani / Binding of serum 6 to linear peptides of protein X2 / Binding of serum 37 to linear peptides of protein X2 / Binding of serum 37 to looped/cyclic peptides of protein X2 of SARS-CoV Urbani / Binding of serum 6 to linear peptides of protein M of SARS-CoV Urbani / Binding of serum 37 to linear peptides of protein M of SARS-CoV Urbani / Binding of serum 6 to looped/cyclic peptides of protein M of SARS-CoV Urbani / Binding of serum 37 to looped/cyclic peptides of protein M of SARS-CoV Urbani / Binding of serum 6 to linear peptides of protein X3 of SARS-CoV Urbani / Binding of serum 37 to linear peptides of protein X3 of SARS-CoV Urbani / Binding of serum 37 to looped/cyclic peptides of protein X3 of SARS-CoV Urbani / Binding of serum 6 to linear peptides of protein X4 of SARS-CoV Urbani / Binding of serum 37 to linear peptides of protein X4 of SARS-CoV Urbani / Binding of serum 37 to looped/cyclic peptides of protein X4 of SARS-CoV Urbani / Binding of serum 6 to linear peptides of protein X5 of SARS-CoV Urbani / Binding of serum 37 to linear peptides of protein X5 of SARS-CoV Urbani / Binding of serum 37 to looped/cyclic peptides of protein X5 of SARS-CoV Urbani / Binding of serum 6 to linear peptides of protein N of SARS-CoV Urbani / Binding of serum 37 to linear peptides of protein N of SARS-CoV Urbani / Binding of serum 6 to linear peptide (PEPSCAN-ELISA) / Binding of serum 1a to looped/cyclic peptides of protein N of SARS-CoV Urbani / Binding of serum 1b to looped/cyclic peptides of protein N of SARS-CoV Urbani / Binding of serum 2 to looped/cyclic peptides of protein N of SARS-CoV Urbani / Binding of serum 6 to looped/cyclic peptides of protein N of SARS-CoV Urbani / Binding of serum 37 to looped/cyclic peptides of protein N of SARS-CoV Urbani / Binding of serum 62 to looped/cyclic peptides of protein N of SARS-CoV Urbani / Binding of serum London to looped/cyclic peptides of protein N of SARS-CoV Urbani / Binding of serum SARS-green to looped/cyclic peptides of protein N of SARS-CoV Urbani: unit not given here.

On to GWLVIGVAFLAVFQS, for which, in assay [1], the “Binding of a rabbit serum to linear peptides” value is on record as 0.8 and the “Binding of a rabbit serum to looped peptides” value turned out to be 0.6. Further, in assay [2], the “Binding of Control Serum Blood-Bank to Looped peptides” value is reported as 0.8, the “Binding of Control serum Blood-bank to linear peptides” value is recorded as 0.5, the “Binding of Control serum LUMC to linear peptides” value was 0.6 and the “Binding of Control serum LUMC to looped peptides” value amounted to 0.7. In addition, in assay [3], the “Binding of serum 1a to linear peptides of protein X1 of SARS-CoV Urbani” value is given as 0.7, the “Binding of serum 1a to looped/cyclic peptide (PEPSCAN-ELISA)” value was found to be 0.7, the “Binding of serum 1b to linear peptides of protein X1 of SARS-CoV Urbani” value was 0.6 and the “Binding of serum 1b to looped/cyclic peptide (PEPSCAN-ELISA)” value came out at 0.5. In assay [3], the “Binding of serum 2 to linear peptides of protein X1 of SARS-CoV Urbani” value was determined as 0.5, the “Binding of serum 2 to looped/cyclic peptide (PEPSCAN-ELISA)” value was determined as 0.7, the “Binding of serum 6 to linear peptides of protein X1 of SARS-CoV Urbani” value is given as 0.5 and the “Binding of serum 6 to looped/cyclic peptide (PEPSCAN-ELISA)” value was determined as 0.4. For the same sequence, in assay [3], the “Binding of serum 37 to linear peptides of protein X1 of SARS-CoV Urbani” value is listed as 0.6, the “Binding of serum 37 to looped/cyclic peptide (PEPSCAN-ELISA)” value is listed as 0.6, the “Binding of serum 62 to linear peptides of protein X1 of SARS-CoV Urbani” value was 0.6 and the “Binding of serum 62 to looped/cyclic peptide (PEPSCAN-ELISA)” value was found to be 0.8. In assay [3], the “Binding of serum London to linear peptides of protein X1 of SARS-CoV Urbani” value is listed as 0.3, the “Binding of serum London to looped/cyclic peptide (PEPSCAN-ELISA)” value stood at 0.3, the “Binding of serum SARS-green to linear peptides of protein X1 of SARS-CoV Urbani” value is 0.2 and the “Binding of serum SARS-green to looped/cyclic peptide (PEPSCAN-ELISA)” value stood at 0.4. Further, in assay [3], the “Binding of serum SARS-yellow to linear peptides of protein X1 of SARS-CoV Urbani” value is reported as 0.5 and the “Binding of serum SARS-yellow to looped/cyclic peptide (PEPSCAN-ELISA)” value amounted to 0.6.

With GYFTEVYYQLESTQI, in assay [1], the “Binding of a rabbit serum to linear peptides” value came out at 0.1 and the “Binding of a rabbit serum to looped peptides” value amounted to 0.5. In addition, in assay [2], the “Binding of Control Serum Blood-Bank to Looped peptides” value came out at 0.6, the “Binding of Control serum Blood-bank to linear peptides” value was found to be 0.4, the “Binding of Control serum LUMC to linear peptides” value amounted to 0.4 and the “Binding of Control serum LUMC to looped peptides” value stood at 0.7. Moreover, in assay [3], the “Binding of serum 1a to linear peptides of protein X1 of SARS-CoV Urbani” value is given as 0.7, the “Binding of serum 1a to looped/cyclic peptides of protein X1 of SARS-CoV Urbani” value is 0.6, the “Binding of serum 1b to linear peptides of protein X1 of SARS-CoV Urbani” value is given as 0.5 and the “Binding of serum 1b to looped/cyclic peptides of protein X1 of SARS-CoV Urbani” value is given as 0.5. Further, in assay [3], the “Binding of serum 2 to linear peptides of protein X1 of SARS-CoV Urbani” value is 0.5, the “Binding of serum 2 to looped/cyclic peptides of protein X1 of SARS-CoV Urbani” value was 0.5, the “Binding of serum 6 to linear peptides of protein X1 of SARS-CoV Urbani” value was determined as 0.4 and the “Binding of serum 6 to looped/cyclic peptides of protein X1 of SARS-CoV Urbani” value was 0.4. Further, in assay [3], the “Binding of serum 37 to linear peptides of protein X1 of SARS-CoV Urbani” value worked out at 0.6, the “Binding of serum 37 to looped/cyclic peptides of protein X1 of SARS-CoV Urbani” value is given as 0.6, the “Binding of serum 62 to linear peptides of protein X1 of SARS-CoV Urbani” value is reported as 0.5 and the “Binding of serum 62 to looped/cyclic peptides of protein X1 of SARS-CoV Urbani” value is 0.6. For the same sequence, in assay [3], the “Binding of serum London to linear peptides of protein X1 of SARS-CoV Urbani” value worked out at 0.3, the “Binding of serum London to looped/cyclic peptides of protein X1 of SARS-CoV Urbani” value is given as 0.2, the “Binding of serum SARS-green to linear peptides of protein X1 of SARS-CoV Urbani” value was determined as 0.3 and the “Binding of serum SARS-green to looped/cyclic peptides of protein X1 of SARS-CoV Urbani” value is 0.4. For the same sequence, in assay [3], the “Binding of serum SARS-yellow to linear peptides of protein X1 of SARS-CoV Urbani” value was found to be 0.4 and the “Binding of serum SARS-yellow to looped/cyclic peptides of protein X1 of SARS-CoV Urbani” value is 0.4.
